Values joined by “and” are separate entries in the source; they are usually repeats but may differ in a detail not shown here. Identical values can stand only once.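 Each compound was tested at five concentrations against cells in 96-well plates for 48 hours. GI50 is the concentration that inhibits growth by half. TGI is the concentration that stops growth completely.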
Assays:
Test in all cases: NCI tumour cell line growth inhibition, 48 h
SK-MEL-2 melanoma = test system: SK-MEL-2 melanoma
OVCAR-4 ovarian = test system: OVCAR-4 ovarian
SN12C renal = test system: SN12C renal
LOX IMVI melanoma = test system: LOX IMVI melanoma
OVCAR-3 ovarian = test system: OVCAR-3 ovarian
MALME-3M melanoma = test system: MALME-3M melanoma
RXF 393 renal = test system: RXF 393 renal
OVCAR-8 ovarian = test system: OVCAR-8 ovarian
SW-620 colon = test system: SW-620 colon
MCF7 breast = test system: MCF7 breast

| Structure (SMILES) | GI50 (SK-MEL-2 melanoma) | TGI (SK-MEL-2 melanoma) | GI50 (OVCAR-4 ovarian) | TGI (OVCAR-4 ovarian) | GI50 (SN12C renal) | TGI (SN12C renal) | GI50 (LOX IMVI melanoma) | TGI (LOX IMVI melanoma) | GI50 (OVCAR-3 ovarian) | TGI (OVCAR-3 ovarian) | GI50 (MALME-3M melanoma) | TGI (MALME-3M melanoma) | GI50 (RXF 393 renal) | TGI (RXF 393 renal) | GI50 (OVCAR-8 ovarian) | TGI (OVCAR-8 ovarian) | GI50 (SW-620 colon) | TGI (SW-620 colon) [µM] | GI50 (MCF7 breast) | TGI (MCF7 breast) [µM] |
| --- | --- | --- | --- | --- | --- | --- | --- | --- | --- | --- | --- | --- | --- | --- | --- | --- | --- | --- | --- | --- |
| C[C@@]12CCC[C@@](C)(C(=O)O)C1CC[C@]13C=C(CO)[C@](O)(CCC12)C3 (some centres undefined) | > 100 µM | > 100 µM | > 100 µM | > 100 µM | > 100 µM | > 100 µM | > 100 µM | > 100 µM | > 100 µM | > 100 µM | > 100 µM | > 100 µM | > 100 µM | > 100 µM | > 100 µM | > 100 µM | > 100 µM | > 100 | > 100 µM | > 100 |
| O=C(/C=C/c1ccccc1Cl)c1ccc(O)cc1 | 15 µM | 31.2 µM | 10.6 µM | 24.9 µM | 8.51 µM | 33.1 µM | 3.09 µM | 10.3 µM | 3.46 µM | 9.22 µM | 16.3 µM | 31.1 µM | 1.97 µM | 5.59 µM | 8.3 µM | 26.3 µM | 2.89 µM | 7.88 | 2.45 µM | 7.54 |
| COc1c(Nc2ncc(Cl)c(N[C@@H]3[C@H]4C=CC(C4)[C@@H]3C(N)=O)n2)ccc2c1CC[C@@H](N1CCOCC1)CC2 | 3.39 µM | 11.9 µM | 3.68 µM | 23 µM | 3.87 µM | 29.2 µM | 2.11 µM | 6.23 µM | 7.06 µM | 24.5 µM | 1.7 µM | 14.6 µM | 1.64 µM | 6.54 µM | 6.59 µM | 29.6 µM | 2.51 µM | 10.2 | 2.01 µM | 17.1 |
| Cn1c(=O)c(Sc2ccccc2F)cc2cnc(NC3CCOCC3)nc21 | > 25 µM | > 25 µM | > 25 µM | > 25 µM | > 25 µM | > 25 µM | > 25 µM | > 25 µM | > 25 µM | > 25 µM | > 25 µM | > 25 µM | > 25 µM | > 25 µM | > 25 µM | > 25 µM | > 25 µM | > 25 | > 25 µM | > 25 |
| CCS(=O)(=O)c1ccc(OC)c(Nc2ncc(-c3cccc(-c4ccccc4F)c3)o2)c1 | > 25 µM | > 25 µM | 3.79 µM | > 25 µM | 14.8 µM | > 25 µM | 15.1 µM | > 25 µM | 15.7 µM | > 25 µM | > 25 µM | > 25 µM | 2.45 µM | > 17.9 µM | > 25 µM | > 25 µM | > 25 µM | > 25 | > 21 µM | > 25 |
| COc1ccccc1/C=C1\CCC(CN(C)C)C1=O (centres undefined) |  | 24.4 µM |  | 19.6 µM |  | 13.3 µM |  | 4.67 µM |  | 18.6 µM |  | 16.2 µM |  | 9.13 µM |  | 26.3 µM |  | 6 |  | 5.87 |
| COc1cccc(C2=NN(C(C)=O)C(c3cc(OC)c(OC)c(OC)c3)C2)c1 (centres undefined) | 23.8 µM | > 100 µM | 6.88 µM | > 100 µM | 5.69 µM | > 100 µM | 7.22 µM | > 100 µM | 1.09 µM | 3.8 µM | 2.47 µM | > 100 µM | 4.02 µM | > 100 µM | 5.1 µM | > 100 µM | 0.668 µM | > 100 | 0.529 µM | > 32.3 |
| NC(=O)c1cccc(N)c1 | > 100 µM | > 100 µM | > 100 µM | > 100 µM | > 100 µM | > 100 µM | > 100 µM | > 100 µM | > 100 µM | > 100 µM | > 100 µM | > 100 µM | > 100 µM | > 100 µM | > 100 µM | > 100 µM | > 100 µM | > 100 | > 100 µM | > 100 |
| COc1cc2c3c(n(CCCN=[N+]=[N-])c(=O)c2cc1OC)-c1ccc(N)cc1C3=O | 0.622 µM | 1.55 µM | 0.608 µM | 2.59 µM | 0.282 µM | > 27.1 µM | 0.0923 µM | 0.466 µM | 0.249 µM | 0.923 µM | 0.804 µM | 4.63 µM | 0.189 µM | 0.468 µM | 0.436 µM | 1.9 µM | 0.203 µM | 3.69 | 0.143 µM |  |
| Cc1nc(NC(=O)COc2cccc(/C=C3\COc4ccccc4C3=O)c2)sc1C | 1.62 µM | 3.17 µM | 4.02 µM | 13.9 µM | 2.01 µM | 4.63 µM | 1.01 µM | 2.55 µM | 1.83 µM | 3.27 µM | 1.79 µM | 4.11 µM | 1.78 µM | 3.48 µM | 2.36 µM | 5.78 µM | 1.08 µM | 2.39 | 0.665 µM | 2.83 |
| Clc1ccc(-c2nc(-c3c[nH]c4ncccc34)cs2)cc1 | > 100 µM | > 100 µM | 65.8 µM | > 100 µM | > 100 µM | > 100 µM | > 100 µM | > 100 µM | > 100 µM | > 100 µM | > 100 µM | > 100 µM | > 100 µM | > 100 µM | > 100 µM | > 100 µM | 36.3 µM | > 100 | > 100 µM | > 100 |
| O=C(/C=C\c1cccc([N+](=O)[O-])c1)c1ccccc1 | 3.91 µM | 17.9 µM | 3.38 µM | 12.6 µM | 3.71 µM | 14.1 µM | 1.76 µM | 3.82 µM | 1.76 µM | 3.6 µM | 2.07 µM | 5.01 µM | 2.01 µM | 5.15 µM | 3.66 µM | 17 µM | 1.81 µM | 5.82 | 1.81 µM | 9.71 |
| S=C(Nc1ccc(-c2nc3ccccc3s2)cc1)Nc1ccccn1 | 22.7 µM | 50.3 µM | 37 µM | > 100 µM | 22.9 µM | 63.6 µM | 18.2 µM | 39.4 µM | 18.7 µM | > 53.9 µM | 28.6 µM | 73.9 µM | 33.1 µM | > 74.5 µM | 32.6 µM | > 73.9 µM | 40.1 µM | > 100 | > 100 µM | > 100 |
| C[C@H]1O[C@@H](O[C@H]2[C@@H](O)C[C@H](O[C@H]3[C@@H](O)C[C@H](O[C@H]4CC[C@]5(C)C6C[C@@H](O)[C@]7(C)[C@@H](C8=CC(=O)OC8)CC[C@]7(O)C6CC[C@@H]5C4)O[C@@H]3C)O[C@@H]2C)C[C@H](O)[C@@H]1O (some centres undefined) | 0.121 µM | 0.328 µM | 0.101 µM | 0.306 µM | 0.0266 µM | 0.457 µM | 0.06 µM | 0.141 µM | 0.0241 µM | 0.0792 µM | 0.115 µM | 0.262 µM | 0.0634 µM | 0.198 µM | 0.0788 µM | 0.198 µM | 0.049 µM | 0.174 | 0.0521 µM | 1.69 |
| O=[N+]([O-])c1ccc(Oc2cccnc2)c([N+](=O)[O-])c1 | 3.97 µM | 14.8 µM | 6.4 µM | > 100 µM | 4.3 µM | 23.2 µM | 3.16 µM | 13.3 µM | 2.75 µM | 6.99 µM | 2.83 µM | 17.6 µM | 3.8 µM | 14.7 µM | 3.52 µM | > 100 µM | 3.27 µM | 12.5 | 3.74 µM | 17.6 |
| Cc1oncc1C(=O)Nc1ccc(C(F)(F)F)cc1 | > 100 µM | > 100 µM | 25 µM | > 100 µM | > 100 µM | > 100 µM | 19.1 µM | > 100 µM | 20.8 µM | 78.7 µM | 20.5 µM | > 100 µM | 23.9 µM | > 100 µM | 17.6 µM | > 100 µM | 92.5 µM | > 100 | > 100 µM | > 100 |
| CCNC(=O)Nc1ccc(-c2nc3c(c(N4CCOC[C@@H]4C)n2)CCN(C2COC2)C3)cc1 | 0.295 µM and 0.392 µM | 3 µM and 3.43 µM | 0.154 µM and 0.259 µM | 1.71 µM and > 7.24 µM | 0.31 µM and 0.285 µM | > 100 µM | 0.411 µM and 0.329 µM | > 100 µM | 0.355 µM and 0.229 µM | > 69.5 µM | 0.0743 µM and 0.0825 µM | 1.6 µM and 1.2 µM | 0.137 µM and 0.125 µM | 0.727 µM and 0.857 µM | 0.46 µM and 0.534 µM | > 100 µM | 0.793 µM and 0.61 µM | > 100 | 0.121 µM and 0.115 µM | > 100 |
| CNC(=O)c1cc(Oc2ccc3nc(NC(=O)c4cc(C(F)(F)F)cc(C(F)(F)F)c4)sc3c2)ccn1 | 2.32 µM | 6.7 µM | 3.12 µM | 27.2 µM | 3.22 µM | 12.5 µM | 3.39 µM | 15.1 µM | 2.32 µM | 6.64 µM | 2.03 µM | 6.65 µM | 2.79 µM | 8.37 µM | 3.06 µM | 13 µM | 7.56 µM | 63.8 | 3.37 µM | 18 |
| O=C1C(CN(Cc2ccccc2)Cc2ccccc2)CCCC1CN(Cc1ccccc1)Cc1ccccc1 (centres undefined) | 19.6 µM and > 69.9 µM | 36 µM and > 100 µM | 20 µM and > 79.8 µM | 36.6 µM and > 100 µM | 13.1 µM and > 79 µM | 25.8 µM and > 100 µM | 14.1 µM and > 77.1 µM | 28.3 µM and > 100 µM | 29.6 µM and > 100 µM | 46.8 µM and > 100 µM | 8.03 µM and 36.3 µM | 14.3 µM and > 83 µM | 20.1 µM and > 100 µM | > 100 µM | 22.9 µM and > 95.5 µM | 43.1 µM and > 100 µM | > 100 µM | > 100 | 20.3 µM and > 100 µM | > 100 |

From PubChem BioAssay (NCI)
